This experiment has as its target T1, human IRAK-4 (Homo sapiens, UniProt Q9NWZ3).
T1 construct: purchased Carna Biosciences 09 145
T1 sequence (Q9NWZ3 1-460): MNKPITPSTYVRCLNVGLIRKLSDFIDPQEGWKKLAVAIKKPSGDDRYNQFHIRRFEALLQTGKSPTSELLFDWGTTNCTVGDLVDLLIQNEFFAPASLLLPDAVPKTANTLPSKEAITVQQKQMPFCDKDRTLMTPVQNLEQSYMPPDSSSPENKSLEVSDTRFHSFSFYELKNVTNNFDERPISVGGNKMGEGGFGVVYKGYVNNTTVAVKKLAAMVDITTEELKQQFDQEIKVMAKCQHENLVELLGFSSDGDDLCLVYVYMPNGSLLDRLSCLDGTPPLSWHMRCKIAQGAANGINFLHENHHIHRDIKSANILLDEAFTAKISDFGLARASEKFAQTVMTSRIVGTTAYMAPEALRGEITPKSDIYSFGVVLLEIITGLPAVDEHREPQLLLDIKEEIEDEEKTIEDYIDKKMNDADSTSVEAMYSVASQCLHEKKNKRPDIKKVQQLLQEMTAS
In words: Phosphorylation IC50 determination for human IRAK-4 (ADP-Glo Kinase Assay). As to conditions: human IRAK-4, substrate RIP140, Km ATP; read-out: IRAK4 ADPglo biochemical assay IC50. On the procedure:
The phosphorylation of the substrate RIP140 (SEQ ID1) by IRAK4 at Km ATP was detected with the ADP-Glo Kinase Assay (Promega, Cat #V9103), a luminescent kinase assay which measures the ADP formed from a kinase reaction. (Zegzouti et al. 2009) In a second step the kinase reaction was terminated and all the remaining ATP was depleted. In a final step the ADP was converted into ATP and this newly synthesized ATP was measured by using a luciferase/luciferin reaction with a luminescent reader. The luminescent signal positively correlated with kinase activity, in particular kinase inhibition giving a decrease of the luminescent signal.
For the semi-automated assay, the positive control (100% inhibition) was prepared by diluting 10 mM staurosporine stock mixture (20 μL) in water (3.8 mL) and DMSO (180 μL), thus resulting in a […] staurosporine solution at 1% DMSO (final concentration after further dilution in the kinase reaction).
For the automated assay, no pre-dilution of the 10 mM staurosporine stock was made. 10 mM staurosporine was spotted directly in the assay plate using acoustic dispensing and complemented with DMSO to result in a similar final concentration as mentioned above.
For the semi-automated assay, the negative control (0% inhibition) was prepared by mixing water (3.8 mL) and DMSO (200 μL) resulting in a final concentration of 1% DMSO after further dilution in the kinase reaction. For the automated assay no pre-dilution of DMSO was done. 100% DMSO was spotted directly on the assay plate.
The assay buffer solution was prepared at a concentration corresponding to 5 fold the final (most diluted) assay concentration by mixing a solution of 125 mM TRIS pH 7.5+0.05% Triton X-100+2.5 mM EGTA (5.27 mL) with 1M mgCl2 (72 μL), 1M DTT (57.6 μL), and 200 mM MnCl2 (360 μL).
For example, for the semi-automated method, the enzyme-substrate mixture was prepared by mixing water (3999 μL), assay buffer solution (1380 μL), 1 mM RIP140 (138 μL—SEQ ID1), and 200 ng/mL IRAK 4 (3.45 μL Carna Biosciences, 09 145).
For semi-automated method, the ATP mixture was prepared at a concentration corresponding to 2.5 fold the final (most diluted) assay concentration of the semi-automated method and 1.5 fold the final (most diluted) assay concentration of the automated method. For example, for the semi-automated method, the ATP mixture was prepared by mixing water (4126 μL), assay buffer solution (1380 μL), and 10 mM ATP (13.80 μL).
The assay are performed either in a semi-automated or fully automated manner. The assay volume and the incubation time of the ADP detection were different accordingly the method used.
The compounds were prepared as a serial dilution of 10 point dose responses with 1/5 dilution steps in 100% DMSO starting from 2 mM highest concentration, diluted 1/20 in water. 1 μL was transferred dry to the assay plates.
On each assay plate 32 wells of each control (positive & negative) were added, followed by 2 μL enzyme-substrate mixture.
The reaction was started by adding 2 μL diluted ATP (final concentration Km ATP) on the assay plates. Plates were centrifuged for a few seconds at 1000 rpm followed by an incubation at r.t. for 120 min.
The reactions were stopped and the unconsumed ATP was depleted by adding 5 μL ADP-glo Reagent (Promega, Cat #V9103) to the reaction. The plates were quickly centrifuged at 1000 rpm and incubated at r.t. for 40 min corresponding to full ATP depletion.
The ADP was converted back to ATP and luciferase and luciferin were introduced to detect ATP by adding 10 μL kinase detection reagent (Promega, Cat #V9103) to the reaction. The plates were centrifuged for a few seconds at 1000 rpm and incubated at r.t. for a further 30 min.
Luminescent read out was performed on an Envision luminescent reader (Perkin Elmer).
For the automated assay, the compounds were prepared as a serial dilution of 10 point dose responses with 1/5 dilution steps in 100% DMSO starting from 2 mM highest concentration. […]
For orientation: ADP-Glo first removes unused ATP, then detects ADP through luciferase.
As usually defined, the IC50 is the point on the concentration scale where inhibition reaches its midpoint. With `COc1cc2nc(C3COCCO3)cn2cc1NC(=O)c1cccn(C2CC2)c1=O` (racemic) [Compound 1, 1-cyclopropyl-N-[2-(1,4-dioxan-2-yl)-7-methoxy-imidazo[1,2-a]pyridin-6-yl]-2-oxo-pyridine-3-carboxamide], the IC50 was 5 to 10 nM. On to `COc1cc2nc(C3COCCO3)cn2cc1NC(=O)c1cccn(C2CC2)c1=O` (single isomer, unassigned) [Compound 7, 1-cyclopropyl-N-[2-(1,4-dioxan-2-yl)-7-methoxy-imidazo[1,2-a]pyridin-6-yl]-2-oxo-pyridine-3-carboxamide], for which the IC50 fell in the range of 5 to 10 nM. Then `COc1cc2nc(C3COCCO3)cn2cc1NC(=O)c1cccn(C2CC2)c1=O` (single isomer, unassigned) [Compound 8, 1-cyclopropyl-N-[2-(1,4-dioxan-2-yl)-7-methoxy-imidazo[1,2-a]pyridin-6-yl]-2-oxo-pyridine-3-carboxamide], with 5 to 10 nM. Then `COc1cc2nc(C3CCOCC3)cn2cc1NC(=O)c1cccc(C(F)(F)F)n1` [Compound 2, N-(7-methoxy-2-tetrahydropyran-4-yl-imidazo[1,2-a]pyridin-6-yl)-6-(trifluoromethyl)pyridine-2-carboxamide], with 10 to 50 nM. `COc1cc2nc(C3CCOCC3)cn2cc1NC(=O)c1cccn(C2CC2)c1=O` [Compound 3, (1-cyclopropyl-N-[7-methoxy-2-(oxan-4-yl)imidazo[1,2-a]pyridin-6-yl]-2-oxopyridine-3-carboxamide)]: the IC50 was 5 to 10 nM.

Take `COc1cc2nc(C3COCCO3)cn2cc1NC(=O)c1cccn(C2CCC2)c1=O` (stereo not shown) [Compound 5, 1-cyclobutyl-N-[2-(1,4-dioxan-2-yl)-7-methoxy-imidazo[1,2-a]pyridin-6-yl]-2-oxo-pyridine-3-carboxamide]: the IC50 lay in the range of 10 to 50 nM. `NC(=O)c1cc2nc(C3COCCO3)cn2cc1NC(=O)c1cccc(C(F)(F)F)n1` (stereo not shown) [Compound 6, 2-(1,4-dioxan-2-yl)-6-[[6-(trifluoromethyl)pyridine-2-carbonyl]amino]imidazo[1,2-a]pyridine-7-carboxamide]: the IC50 is 5 to 10 nM. Then `CNC(=O)c1cc2nc(C3COCCO3)cn2cc1NC(=O)c1cccc(C(F)(F)F)n1` (stereo not shown) [Compound 9, 2-(1,4-dioxan-2-yl)-N-methyl-6-(6-(trifluoromethyl)picolinamido)imidazo[1,2-a]pyridine-7-carboxamide], with 5 to 10 nM; and `CC(F)(F)c1cccc(C(=O)Nc2cn3cc(C4COCCO4)nc3cc2C(N)=O)n1` (stereo not shown) [Compound 11, 6-(6-(1,1-difluoroethyl)picolinamido)-2-(1,4-dioxan-2-yl)imidazo[1,2-a]pyridine-7-carboxamide], with 5 to 10 nM; and `COc1cc2nc(C3CCS(=O)(=O)CC3)cn2cc1NC(=O)c1cccn(C2CC2)c1=O` [Compound 23, 1-cyclopropyl-N-(2-(1,1-dioxidotetrahydro-2H-thiopyran-4-yl)-7-methoxyimidazo[1,2-a]pyridin-6-yl)-2-oxo-1,2-dihydropyridine-3-carboxamide], with 0.1 to 5 nM.
